{"source": "paper PMC10002956", "about": "“Tumour suppressor PTEN activity is differentially inducible by myo‐inositol phosphates” (Journal of Cellular and Molecular Medicine, 2023)", "key": {"[1]": {"molecular_target": "T1, PTEN (phosphatase and tensin homologue deleted on Chromosome 10) (Homo sapiens, UniProt P60484)", "T1 construct": "commercial recombinant PTEN; immobilised on CM5 chip for SPR", "T1 sequence (P60484 2-403)": "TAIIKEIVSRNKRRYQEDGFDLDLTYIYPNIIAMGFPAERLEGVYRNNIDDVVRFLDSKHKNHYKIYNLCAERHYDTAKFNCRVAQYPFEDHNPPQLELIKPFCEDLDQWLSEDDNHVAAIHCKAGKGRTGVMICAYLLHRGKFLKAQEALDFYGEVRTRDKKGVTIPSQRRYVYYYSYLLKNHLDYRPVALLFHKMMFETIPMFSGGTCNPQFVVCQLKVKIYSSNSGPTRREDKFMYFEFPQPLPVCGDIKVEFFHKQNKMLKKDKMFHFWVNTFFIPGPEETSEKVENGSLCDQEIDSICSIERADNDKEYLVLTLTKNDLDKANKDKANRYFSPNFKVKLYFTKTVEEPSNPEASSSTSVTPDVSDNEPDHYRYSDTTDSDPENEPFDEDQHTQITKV", "assay": "malachite green phosphate release from PIP3", "format": "biochemical", "conditions": "PIP3 200 μM, PTEN 50 μM, IHP 2.5-40 mM; Tris-HCl pH 7.5, 10 mM DTT, 37 °C"}, "[2]": {"molecular_target": "T1, PTEN (phosphatase and tensin homologue deleted on Chromosome 10)", "assay": "SPR, PTEN immobilised on CM5 chip, Biacore T200, […] Langmuir with mass transport", "format": "binding", "conditions": "25 °C, HBS; PIP3 25-400 μM; acyl chains of PIP3 not told"}}}
{"compound": "O=P(O)(O)O[C@H]1[C@H](OP(=O)(O)O)[C@@H](OP(=O)(O)O)[C@H](OP(=O)(O)O)[C@@H](OP(=O)(O)O)[C@H]1OP(=O)(O)O", "note": "[IHP]", "values": [{"measurement": "malachite green phosphate release from PIP3", "setting": "[1]", "result": "IHP inhibits hydrolysis in a concentration‐dependent manner"}]}
{"compound": "PIP3", "values": [{"measurement": "K D", "setting": "[2]", "result": "~ 2.5 micromoles"}]}
